Legend:
[1] = test system: HCC 2998; test: Growth inhibition of human HCC2998 cells incubated for 48 hrs by sulforhodamine B assay; type: functional, cell-based; conditions: HCC 2998, 48 h
[2] = test system: SNB-19; test: Growth inhibition of human SNB19 cells incubated for 48 hrs by sulforhodamine B assay; type: functional, cell-based; conditions: SNB-19, 48 h
[3] = test system: MDA-MB-435; test: Growth inhibition of human MDA-MB-435 cells incubated for 48 hrs by sulforhodamine B assay; type: functional, cell-based; conditions: MDA-MB-435, 48 h
[4] = test system: UACC-62; test: Growth inhibition of human UACC62 cells incubated for 48 hrs by sulforhodamine B assay; type: functional, cell-based; conditions: UACC-62, 48 h
[5] = test system: A498; test: Growth inhibition of human A498 cells incubated for 48 hrs by sulforhodamine B assay; type: functional, cell-based; conditions: A498, 48 h
[6] = test system: Hs-578T; test: Growth inhibition of human Hs578T cells incubated for 48 hrs by sulforhodamine B assay; type: functional, cell-based
[7] = test system: HOP-62; test: Growth inhibition of human HOP62 cells assessed as cell growth at 0.01 uM incubated for 48 hrs by sulforhodamine B assay relative to control; type: functional; conditions: HOP-62, 48 h, read-out: Activity
[8] = test system: COLO 205; test: Growth inhibition of human COLO205 cells assessed as cell growth at 0.01 uM incubated for 48 hrs by sulforhodamine B assay relative to control; type: functional; conditions: COLO 205, 48 h, read-out: Activity
[9] = test system: HCC 2998; test: Growth inhibition of human HCC2998 cells assessed as cell growth at 0.01 uM incubated for 48 hrs by sulforhodamine B assay relative to control; type: functional; conditions: HCC 2998, 48 h, read-out: Activity
[10] = test system: LOX IMVI; test: Growth inhibition of human LOXIMVI cells assessed as cell growth at 0.01 uM incubated for 48 hrs by sulforhodamine B assay relative to control; type: functional; conditions: read-out: Activity
[11] = test system: SK-MEL-2; test: Growth inhibition of human SK-MEL-2 cells assessed as cell growth at 0.01 uM incubated for 48 hrs by sulforhodamine B assay relative to control; type: functional; conditions: SK-MEL-2, 48 h, read-out: Activity
[12] = test system: OVCAR-4; test: Growth inhibition of human OVCAR4 cells assessed as cell growth at 0.01 uM incubated for 48 hrs by sulforhodamine B assay relative to control; type: functional; conditions: OVCAR-4, 48 h, read-out: Activity
[13] = test system: NCI-H322M; test: Growth inhibition of human NCI-H322M cells assessed as cell growth at 0.1 uM incubated for 48 hrs by sulforhodamine B assay relative to control; type: functional; conditions: read-out: Activity
[14] = test system: SNB-75; test: Growth inhibition of human SNB75 cells assessed as cell growth at 0.1 uM incubated for 48 hrs by sulforhodamine B assay relative to control; type: functional; conditions: SNB-75, 48 h, read-out: Activity
[15] = test system: SN12C; test: Growth inhibition of human SN12C cells assessed as cell growth at 0.1 uM incubated for 48 hrs by sulforhodamine B assay relative to control; type: functional; conditions: read-out: Activity
[16] = test system: T47D; test: Growth inhibition of human T47D cells assessed as cell growth at 0.1 uM incubated for 48 hrs by sulforhodamine B assay relative to control; type: functional; conditions: read-out: Activity
[17] = test system: A549; test: Growth inhibition of human A549/ATCC cells assessed as cell growth at 1 uM incubated for 48 hrs by sulforhodamine B assay relative to control; type: functional; conditions: A549, 48 h, read-out: Activity
[18] = test system: NCI-H322M; test: Growth inhibition of human NCI-H322M cells assessed as cell growth at 1 uM incubated for 48 hrs by sulforhodamine B assay relative to control; type: functional; conditions: read-out: Activity
[19] = test system: HT-29; test: Growth inhibition of human HT-29 cells assessed as cell growth at 1 uM incubated for 48 hrs by sulforhodamine B assay relative to control; type: functional; conditions: HT-29, 48 h, read-out: Activity
[20] = test system: SK-MEL-28; test: Growth inhibition of human SK-MEL-28 cells assessed as cell growth at 1 uM incubated for 48 hrs by sulforhodamine B assay relative to control; type: functional; conditions: SK-MEL-28, 48 h, read-out: Activity
[21] = test system: UACC-257; test: Growth inhibition of human UACC257 cells assessed as cell growth at 1 uM incubated for 48 hrs by sulforhodamine B assay relative to control; type: functional; conditions: UACC-257, 48 h, read-out: Activity
[22] = test system: OVCAR-5; test: Growth inhibition of human OVCAR5 cells assessed as cell growth at 1 uM incubated for 48 hrs by sulforhodamine B assay relative to control; type: functional; conditions: OVCAR-5, 48 h, read-out: Activity
[23] = test system: NCI/ADR-RES; test: Growth inhibition of human NCI/ADR-RES cells assessed as cell growth at 1 uM incubated for 48 hrs by sulforhodamine B assay relative to control; type: functional; conditions: read-out: Activity
[24] = test system: NCI-H322M; test: Growth inhibition of human NCI-H322M cells assessed as cell growth at 100 uM incubated for 48 hrs by sulforhodamine B assay relative to control; type: functional; conditions: read-out: Activity
[25] = test system: HT-29; test: Growth inhibition of human HT-29 cells assessed as cell growth at 100 uM incubated for 48 hrs by sulforhodamine B assay relative to control; type: functional; conditions: HT-29, 48 h, read-out: Activity
[26] = test system: LOX IMVI; test: Growth inhibition of human LOXIMVI cells assessed as cell growth at 100 uM incubated for 48 hrs by sulforhodamine B assay relative to control; type: functional; conditions: read-out: Activity
[27] = test system: RXF 393; test: Growth inhibition of human RXF393 cells assessed as cell growth at 100 uM incubated for 48 hrs by sulforhodamine B assay relative to control; type: functional; conditions: RXF 393, 48 h, read-out: Activity
[28] = test system: UO-31; test: Growth inhibition of human UO31 cells assessed as cell growth at 100 uM incubated for 48 hrs by sulforhodamine B assay relative to control; type: functional; conditions: UO-31, 48 h, read-out: Activity
[29] = test system: Hs-578T; test: Growth inhibition of human Hs578T cells assessed as cell growth at 100 uM incubated for 48 hrs by sulforhodamine B assay relative to control; type: functional; conditions: read-out: Activity
[30] = test system: MDA-MB-468; test: Growth inhibition of human MDA-MB-468 cells assessed as cell growth at 100 uM incubated for 48 hrs by sulforhodamine B assay relative to control; type: functional; conditions: MDA-MB-468, 48 h, read-out: Activity
[31] = read-out: LC50 (the source's name)
[32] = read-out: pLC50 (the source's name) (converted)

COc1cc(Cl)cc(-c2nn(-c3cccc(NC(=O)c4ccc(N5CCOCC5)c(C(F)(F)F)c4)c3)cc2-c2ccncc2)c1
GI50 ([1]; read-out: GI50): 5.06 µM | CC50 [1, 31]: > 100 µM | TGI ([1]; read-out: TGI): 74.7 µM | GI50 ([1]; read-out: pGI50 (converted)): 6.03 µM | CC50 [1, 32]: > 100 µM | TGI ([1]; read-out: pTGI (converted)): 74.1 µM | GI50 ([2]; read-out: GI50): > 100 µM | CC50 [2, 31]: > 100 µM | TGI ([2]; read-out: TGI): > 100 µM | GI50 ([2]; read-out: pGI50 (converted)): > 100 µM | CC50 [2, 32]: > 100 µM | TGI ([2]; read-out: pTGI (converted)): > 100 µM | GI50 ([3]; read-out: GI50): 4.38 µM | LC50 ([3]; read-out: LC50): > 100 µM | TGI ([3]; read-out: TGI): > 100 µM | GI50 ([3]; read-out: pGI50 (converted)): 43.7 µM | LC50 ([3]; read-out: pLC50 (converted)): > 100 µM | TGI ([3]; read-out: pTGI (converted)): > 100 µM | IC50 [4]: 9.1 µM | GI50 ([4]; read-out: GI50): 9.1 µM | CC50 [4, 31]: > 100 µM | TGI ([4]; read-out: TGI): > 100 µM | GI50 ([4]; read-out: pGI50 (converted)): 9.12 µM | CC50 [4, 32]: > 100 µM | TGI ([4]; read-out: pTGI (converted)): > 100 µM | GI50 ([5]; read-out: GI50): 1.52 µM | CC50 [5, 31]: > 100 µM | TGI ([5]; read-out: TGI): > 100 µM | GI50 ([5]; read-out: pGI50 (converted)): 16.2 µM | CC50 [5, 32]: > 100 µM | TGI ([5]; read-out: pTGI (converted)): > 100 µM | GI50 ([6]; read-out: GI50): 5.48 µM | CC50 [6, 31]: > 100 µM | TGI ([6]; read-out: TGI): > 100 µM | GI50 ([6]; read-out: pGI50 (converted)): 6.46 µM | CC50 [6, 32]: > 100 µM | TGI ([6]; read-out: pTGI (converted)): > 100 µM | growth at 0.01 µM [7]: 104% | growth at 0.01 µM [8]: 103% | growth at 0.01 µM [9]: 95% | growth at 0.01 µM [10]: 97% | growth at 0.01 µM [11]: 96% | growth at 0.01 µM [12]: 99% | growth at 0.1 µM [13]: 94% | growth at 0.1 µM [14]: 54% | growth at 0.1 µM [15]: 95% | growth at 0.1 µM [16]: 95% | growth at 1 µM [17]: 52% | growth at 1 µM [18]: 55% | growth at 1 µM [19]: 93% | growth at 1 µM [20]: 53% | growth at 1 µM [21]: 98% | growth at 1 µM [22]: 75% | growth at 1 µM [23]: 92% | growth at 100 µM [24]: 48% | growth at 100 µM [25]: -17% | growth at 100 µM [26]: 25% | growth at 100 µM [27]: -10% | growth at 100 µM [28]: 17% | growth at 100 µM [29]: 42% | growth at 100 µM [30]: 17%

COc1cc(Cl)cc(-c2nn(-c3cccc(NC(=O)Nc4ccc(Cl)c(Cl)c4)c3)cc2-c2ccncc2)c1
GI50 ([1]; read-out: GI50): 3.16 µM | CC50 [1, 31]: > 100 µM | TGI ([1]; read-out: TGI): 35.8 µM | GI50 ([1]; read-out: pGI50 (converted)): 3.16 µM | CC50 [1, 32]: > 100 µM | TGI ([1]; read-out: pTGI (converted)): 37.2 µM | GI50 ([2]; read-out: GI50): 3.51 µM | CC50 [2, 31]: > 100 µM | TGI ([2]; read-out: TGI): > 100 µM | GI50 ([2]; read-out: pGI50 (converted)): 3.55 µM | CC50 [2, 32]: > 100 µM | TGI ([2]; read-out: pTGI (converted)): > 100 µM | GI50 ([3]; read-out: GI50): 2.06 µM | LC50 ([3]; read-out: LC50): > 100 µM | TGI ([3]; read-out: TGI): 60 µM | GI50 ([3]; read-out: pGI50 (converted)): 2.09 µM | LC50 ([3]; read-out: pLC50 (converted)): > 100 µM | TGI ([3]; read-out: pTGI (converted)): 6.03 µM | IC50 [4]: 2.4 µM | GI50 ([4]; read-out: GI50): 2.4 µM | CC50 [4, 31]: > 100 µM | TGI ([4]; read-out: TGI): 16.3 µM | GI50 ([4]; read-out: pGI50 (converted)): 2.4 µM | CC50 [4, 32]: > 100 µM | TGI ([4]; read-out: pTGI (converted)): 16.2 µM | GI50 ([5]; read-out: GI50): 2.52 µM | CC50 [5, 31]: > 100 µM | TGI ([5]; read-out: TGI): 90.9 µM | GI50 ([5]; read-out: pGI50 (converted)): 2.51 µM | CC50 [5, 32]: > 100 µM | TGI ([5]; read-out: pTGI (converted)): 91.2 µM | GI50 ([6]; read-out: GI50): 3.59 µM | CC50 [6, 31]: > 100 µM | TGI ([6]; read-out: TGI): > 100 µM | GI50 ([6]; read-out: pGI50 (converted)): 3.89 µM | CC50 [6, 32]: > 100 µM | TGI ([6]; read-out: pTGI (converted)): > 100 µM | growth at 0.01 µM [7]: 92% | growth at 0.01 µM [8]: 99% | growth at 0.01 µM [9]: 93% | growth at 0.01 µM [10]: 96% | growth at 0.01 µM [11]: 96% | growth at 0.01 µM [12]: 93% | growth at 0.1 µM [13]: 90% | growth at 0.1 µM [14]: 90% | growth at 0.1 µM [15]: 100% | growth at 0.1 µM [16]: 94% | growth at 1 µM [17]: 82% | growth at 1 µM [18]: 88% | growth at 1 µM [19]: 62% | growth at 1 µM [20]: 87% | growth at 1 µM [21]: 80% | growth at 1 µM [22]: 87% | growth at 1 µM [23]: 78% | growth at 100 µM [24]: 3% | growth at 100 µM [25]: -44% | growth at 100 µM [26]: -30% | growth at 100 µM [27]: -43% | growth at 100 µM [28]: -10% | growth at 100 µM [29]: 28% | growth at 100 µM [30]: -18%

From ChEMBL document CHEMBL4308841, “Synthesis, in vitro antiproliferative activity, and kinase inhibitory effects of pyrazole-containing diarylureas and diarylamides” (Eur J Med Chem, 2018)
